ChEMBL document CHEMBL1201862, “PubChem BioAssay data set” (2004)
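Five concentrations, 48 hours, 96-well plates. Abbreviation: GI50, concentration required for 50% inhibition of growth.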 Active and inactive are the calls of the source. Rule as the data show it: active = GI50 up to about 1.1 µM and inactive = higher.

Experiments:
Test in all cases: NCI-60 cell line screen, 48 h
[1] = test system: MDA-MB-435
[2] = test system: NCI/ADR-RES
[3] = test system: SK-OV-3
[4] = test system: Hs-578T
[5] = test system: PC-3
[6] = test system: HT-29
[7] = test system: HL-60
[8] = test system: SNB-75
[9] = test system: T47D
[10] = test system: SF-295
[11] = test system: A498
[12] = test system: CAKI-1
[13] = test system: UACC-257
[14] = test system: MDA-MB-231
[15] = test system: UO-31
[16] = test system: HCT-116
[17] = test system: MCF7
[18] = test system: SW-620
[19] = test system: NCI-H226
[20] = test system: M14
[21] = test system: SK-MEL-5
[22] = test system: ACHN
[23] = test system: OVCAR-3
[24] = test system: OVCAR-8
[25] = test system: CCRF-CEM
[26] = test system: BT-549
[27] = test system: LOX IMVI
[28] = test system: HOP-62
[29] = test system: KM12
[30] = test system: SK-MEL-2
[31] = test system: SF-539
[32] = test system: MDA-N
[33] = test system: HOP-92
[34] = test system: SF-268
[35] = test system: Malme-3M
[36] = test system: IGROV-1
[37] = test system: UACC-62
[38] = test system: A549
[39] = test system: NCI-H460
[40] = test system: SN12C
[41] = test system: RPMI-8226
[42] = test system: MOLT-4
[43] = test system: K562
[44] = test system: HCT-15
[45] = test system: U-251
[46] = test system: SR
[47] = test system: TK-10
[48] = test system: OVCAR-4
[49] = test system: DU-145
[50] = test system: SK-MEL-28
[51] = test system: COLO 205
[52] = test system: OVCAR-5
[53] = test system: EKVX
[54] = test system: RXF 393
[55] = test system: NCI-H23
[56] = test system: SNB-19
[57] = test system: NCI-H522
[58] = test system: 786-0

**Q.** How did the GI50 [1] turn out when `NCC1OC(n2cnc3c(N)ncnc32)CC1O` (centres undefined) was run?
**A.** > 100 µM (inactive)

**Q.** And the GI50 [2]?
**A.** > 100 µM (inactive)

**Q.** What about the GI50 [3] of the same compound?
**A.** > 100 µM (inactive)

**Q.** What about the GI50 [4] of the same compound?
**A.** > 100 µM (inactive)

**Q.** And the GI50 [5]?
**A.** > 100 µM (inactive)

**Q.** And the GI50 [6]?
**A.** > 100 µM (inactive)

**Q.** And the GI50 [7]?
**A.** > 100 µM (inactive)

**Q.** And the GI50 [8]?
**A.** > 100 µM (inactive)

**Q.** And the GI50 [9]?
**A.** > 100 µM (inactive)

**Q.** And the GI50 [10]?
**A.** > 100 µM (inactive)

**Q.** What about the GI50 [11] of the same compound?
**A.** > 100 µM (inactive)

**Q.** What about the GI50 [12] of the same compound?
**A.** > 100 µM (inactive)

**Q.** And the GI50 [13]?
**A.** > 100 µM (inactive)

**Q.** What about the GI50 [14] of the same compound?
**A.** > 100 µM (inactive)

**Q.** What about the GI50 [15] of the same compound?
**A.** > 100 µM (inactive)

**Q.** And the GI50 [16]?
**A.** > 100 µM (inactive)

**Q.** What about the GI50 [17] of the same compound?
**A.** > 100 µM (inactive)

**Q.** What about the GI50 [18] of the same compound?
**A.** > 100 µM (inactive)

**Q.** And the GI50 [19]?
**A.** > 100 µM (inactive)

**Q.** And the GI50 [20]?
**A.** > 100 µM (inactive)

**Q.** What about the GI50 [21] of the same compound?
**A.** > 100 µM (inactive)

**Q.** What about the GI50 [22] of the same compound?
**A.** > 100 µM (inactive)

**Q.** And the GI50 [23]?
**A.** > 100 µM (inactive)

**Q.** And the GI50 [24]?
**A.** > 100 µM (inactive)

**Q.** What about the GI50 [25] of the same compound?
**A.** > 100 µM (inactive)

**Q.** What about the GI50 [26] of the same compound?
**A.** > 100 µM (inactive)

**Q.** What about the GI50 [27] of the same compound?
**A.** > 100 µM (inactive)

**Q.** And the GI50 [28]?
**A.** > 100 µM (inactive)

**Q.** What about the GI50 [29] of the same compound?
**A.** > 100 µM (inactive)

**Q.** What about the GI50 [30] of the same compound?
**A.** > 100 µM (inactive)

**Q.** What about the GI50 [31] of the same compound?
**A.** > 100 µM (inactive)

**Q.** And the GI50 [32]?
**A.** > 100 µM (inactive)

**Q.** And the GI50 [33]?
**A.** > 100 µM (inactive)

**Q.** And the GI50 [34]?
**A.** > 100 µM (inactive)

**Q.** And the GI50 [35]?
**A.** > 100 µM (inactive)

**Q.** What about the GI50 [36] of the same compound?
**A.** > 100 µM (inactive)

**Q.** What about the GI50 [37] of the same compound?
**A.** > 100 µM (inactive)

**Q.** And the GI50 [38]?
**A.** > 100 µM (inactive)

**Q.** And the GI50 [39]?
**A.** > 100 µM (inactive)

**Q.** What about the GI50 [40] of the same compound?
**A.** > 100 µM (inactive)

**Q.** What about the GI50 [41] of the same compound?
**A.** > 100 µM (inactive)

**Q.** And the GI50 [42]?
**A.** > 100 µM (inactive)

**Q.** What about the GI50 [43] of the same compound?
**A.** > 100 µM (inactive)

**Q.** And the GI50 [44]?
**A.** > 100 µM

**Q.** What about the GI50 [45] of the same compound?
**A.** > 100 µM (inactive)

**Q.** And the GI50 [46]?
**A.** > 100 µM (inactive)

**Q.** What about the GI50 [47] of the same compound?
**A.** > 100 µM (inactive)

**Q.** And the GI50 [48]?
**A.** > 100 µM (inactive)

**Q.** And the GI50 [49]?
**A.** > 100 µM (inactive)

**Q.** What about the GI50 [50] of the same compound?
**A.** > 100 µM (inactive)

**Q.** What about the GI50 [51] of the same compound?
**A.** > 100 µM (inactive)

**Q.** What about the GI50 [52] of the same compound?
**A.** > 100 µM (inactive)

**Q.** And the GI50 [53]?
**A.** > 100 µM (inactive)

**Q.** And the GI50 [54]?
**A.** > 100 µM (inactive)

**Q.** And the GI50 [55]?
**A.** > 100 µM (inactive)

**Q.** And the GI50 [56]?
**A.** > 100 µM (inactive)

**Q.** What about the GI50 [57] of the same compound?
**A.** > 100 µM (inactive)

**Q.** What about the GI50 [58] of the same compound?
**A.** > 100 µM (inactive)

**Q.** Which GI50 [1] does the source give for `CC(=O)C(C(=N)C#N)C(=O)Nc1ccccc1` (centres undefined) here?
**A.** > 100 µM (inactive)

**Q.** What about the GI50 [2] of the same compound?
**A.** > 100 µM (inactive)

**Q.** What about the GI50 [3] of the same compound?
**A.** > 100 µM (inactive)

**Q.** And the GI50 [4]?
**A.** 44.9 µM (inactive)

**Q.** And the GI50 [5]?
**A.** > 100 µM (inactive)

**Q.** And the GI50 [6]?
**A.** > 100 µM (inactive)

**Q.** And the GI50 [8]?
**A.** > 100 µM (inactive)

**Q.** What about the GI50 [9] of the same compound?
**A.** > 100 µM (inactive)

**Q.** And the GI50 [10]?
**A.** > 100 µM (inactive)

**Q.** And the GI50 [11]?
**A.** > 100 µM (inactive)

**Q.** And the GI50 [12]?
**A.** > 100 µM (inactive)

**Q.** What about the GI50 [13] of the same compound?
**A.** > 100 µM (inactive)

**Q.** What about the GI50 [14] of the same compound?
**A.** > 100 µM (inactive)

**Q.** What about the GI50 [16] of the same compound?
**A.** > 100 µM (inactive)

**Q.** And the GI50 [17]?
**A.** > 100 µM (inactive)

**Q.** And the GI50 [18]?
**A.** > 100 µM (inactive)

**Q.** And the GI50 [19]?
**A.** > 100 µM (inactive)

**Q.** And the GI50 [20]?
**A.** > 100 µM (inactive)

**Q.** And the GI50 [21]?
**A.** > 100 µM (inactive)

**Q.** And the GI50 [22]?
**A.** > 100 µM (inactive)

**Q.** What about the GI50 [23] of the same compound?
**A.** > 100 µM (inactive)

**Q.** What about the GI50 [24] of the same compound?
**A.** > 100 µM (inactive)

**Q.** What about the GI50 [25] of the same compound?
**A.** > 100 µM (inactive)

**Q.** What about the GI50 [26] of the same compound?
**A.** > 100 µM (inactive)

**Q.** And the GI50 [27]?
**A.** > 100 µM (inactive)

**Q.** What about the GI50 [28] of the same compound?
**A.** > 100 µM (inactive)

**Q.** And the GI50 [29]?
**A.** > 100 µM (inactive)

**Q.** What about the GI50 [30] of the same compound?
**A.** > 100 µM (inactive)

**Q.** What about the GI50 [31] of the same compound?
**A.** > 100 µM (inactive)

**Q.** And the GI50 [32]?
**A.** > 100 µM (inactive)

**Q.** What about the GI50 [33] of the same compound?
**A.** > 100 µM (inactive)

**Q.** What about the GI50 [34] of the same compound?
**A.** > 100 µM (inactive)

**Q.** What about the GI50 [35] of the same compound?
**A.** > 100 µM (inactive)

**Q.** What about the GI50 [36] of the same compound?
**A.** > 100 µM (inactive)

**Q.** And the GI50 [37]?
**A.** > 100 µM (inactive)

**Q.** And the GI50 [38]?
**A.** > 100 µM (inactive)

**Q.** What about the GI50 [39] of the same compound?
**A.** > 100 µM (inactive)

**Q.** And the GI50 [40]?
**A.** > 100 µM (inactive)

**Q.** What about the GI50 [41] of the same compound?
**A.** > 100 µM (inactive)

**Q.** What about the GI50 [42] of the same compound?
**A.** > 100 µM (inactive)

**Q.** And the GI50 [43]?
**A.** > 100 µM (inactive)

**Q.** What about the GI50 [44] of the same compound?
**A.** > 100 µM

**Q.** What about the GI50 [45] of the same compound?
**A.** > 100 µM (inactive)

**Q.** What about the GI50 [46] of the same compound?
**A.** > 100 µM (inactive)

**Q.** And the GI50 [47]?
**A.** > 100 µM (inactive)

**Q.** And the GI50 [48]?
**A.** > 100 µM (inactive)

**Q.** What about the GI50 [49] of the same compound?
**A.** > 100 µM (inactive)

**Q.** And the GI50 [50]?
**A.** > 100 µM (inactive)

**Q.** And the GI50 [51]?
**A.** > 100 µM (inactive)

**Q.** And the GI50 [52]?
**A.** > 100 µM (inactive)

**Q.** And the GI50 [53]?
**A.** > 100 µM (inactive)

**Q.** And the GI50 [54]?
**A.** > 100 µM (inactive)

**Q.** What about the GI50 [55] of the same compound?
**A.** > 100 µM (inactive)

**Q.** And the GI50 [56]?
**A.** > 100 µM (inactive)

**Q.** What about the GI50 [57] of the same compound?
**A.** > 100 µM (inactive)

**Q.** What about the GI50 [58] of the same compound?
**A.** > 100 µM (inactive)
